The record followed here is PubChem BioAssay AID2060500 (Molecular Pharmacology Branch, DTP, NCI, 2025).

The subject of the assay is 596521-263-R-J1-PDC complex spheroids, viability % of control. The experiment in a line: Anticancer human tumor 596521-263-R-J1-PDC patient-derived soft tissue sarcoma cell line growth inhibition [GQUAD]. As to conditions: for viability, T/C: stronger effect = lower value. From the text: DNA G-quadruplex Stabilizer Agents in Combinations in Complex Spheroids
A high-throughput screen of multi-cell type tumor spheroids was designed to identify active combinations of DNA G-quadruplex stabilizer agents and targeted small molecules. Complex spheroids include a stromal component modeled by human endothelial cells (HUVEC) and fibroblasts modeled by human mesenchymal stem cells (MSCs). The concentration ranges selected for each drug and investigational agent were based upon clinically achievable concentrations if the clinical Cmax of the agent was known.
Compounds. The drugs and investigational agents: pidnarulex (CX-5461; NSC782164), APTO-253 (NSC789042), BRACO-19 (NSC847499), peposertib (NSC802822), ceralasertib (NSC780249), elimusertib (NSC800525), camonsertib (NSC841442), AZD-1390 (NSC803789), olaparib (NSC753686), talazoparib (NSC767125), ART-558 (NSC835418), sotorasib (NSC818433), MRTX-1133 (NSC836407), SN-38 (NSC673596), topotecan (NSC609699), etoposide (NSC141540), doxorubicin (NSC123127), gemcitabine (NSC613327), 5-fluorouracil (NSC19893), paclitaxel (NSC125973), vemurafenib (NSC761431), panobinostat (NSC761190), R-306465 (JNJ-16241199; NSC773264), adavosertib (NSC754352), TP-3654 (NSC805149), carboplatin (NSC241240), KSQ-4279 (NSC840948), and staurosporine (NSC755774) were obtained from the National Cancer Institute (NCI) Developmental Therapeutics Program Chemical Repository (34). The FDA-approved anticancer drug set is available from the NCI Developmental Therapeutics Program. […] The stock solutions were prepared in dimethyl sulfoxide (DMSO, Sigma-Aldrich, St. Louis, MO, cat. D2650) at 800-fold the tested concentration and stored at -70 degrees C prior to their use. All drugs and investigational agents were tested over a range starting from a high concentration at or near the clinical Cmax and decreasing in half-log increments. If the clinical Cmax for an agent had not been determined, the highest concentration tested was 10 microM.
2.3 Cell Culture. All cells were maintained in an incubator at 37 degrees C and 5% CO2 with 95% humidity. The PDC lines were cultured according to standard operating procedures established by the NCI PDMR. All PDCs were thawed and cultured in Matrigel-coated flasks prepared with a working solution of 1X Ham's F-12 nutrient mix, without supplementation (Invitrogen, cat. 11765054), 100 U/mL penicillin-streptomycin (Invitrogen, cat. 15140122), and 2.5% Matrigel (Corning Inc., cat. 354248) for the first three passages. The 857933-349-R-J2-PDC line was cultured in 6C/Colon 1B media, which includes advanced DMEM/F-12 (Thermo Fisher Scientific, cat. 12634028), 10 mM HEPES (Thermo Fisher Scientific, cat. 15630080), 1X GlutaMAX supplement (Thermo Fisher Scientific, cat. 35050061), 0.1 mg/mL primocin (InvivoGen, cat. ant-pm-2), 10% defined fetal bovine serum, heat inactivated (HyClone Laboratories Inc., cat. SH30070.03HI), 50% L-WRN conditioned media (ATCC, cat. CRL-3276), 1.25 mM N-Acetyl-L-cysteine (Sigma-Aldrich, cat. A9165), 10 mM nicotinamide (Sigma-Aldrich, cat. N0636), 1X B-27 supplement (Thermo Fisher Scientific, cat. 17504044), 1X N-2 supplement (Thermo Fisher Scientific, cat. 17502048), 10 microM Y-27632 dihydrochloride (Tocris Bioscience, cat. 1254), and 50 ng/mL human EGF recombinant protein (Thermo Fisher Scientific, cat. PHG0311). The 485176-168-R4-J1-PDC line was cultured in Panc media, which includes all 6C/Colon 1B media components plus 100 ng/mL human FGF-10 (Thermo Fisher Scientific, cat. 100-26), 500 nM SB-431542 (Selleckchem, cat. S1067), and gastrin (Tocris, cat. 3006).
[…]

Values joined by “and” are separate entries in the source; they are usually repeats but may differ in a detail not shown here. Identical values can stand only once.

The term IC50 denotes the concentration that gives 50% inhibition. Usually viability, T/C stands for the ratio of treated to control.
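Note: spheroids exposed to drugs for 7 days before viability reading.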

As for `COc1ccc([C@@H](O)c2cc(-c3ncnc4cc(N5CCOCC5)ccc34)c(F)cc2Cl)nn1` + Cc1[nH]c2ccc(F)cc2c1-c1nc2c3cccnc3c3ncccc3c2[nH]1, the concentration for half-maximal inhibition (IC50) by setting is: (curve of first compound, second compound 0.0316 µM) above 10 µM; (curve of first compound, second compound 0.1 µM) above 10 µM; (curve of first compound, second compound 0.316 µM) above 10 µM; (curve of first compound, second compound 1 µM) above 10 µM; (curve of first compound, second compound 3.16 µM) above 10 µM; (curve of first compound, second compound 10 µM) 6.14 µM. For the same compound, the viability, T/C by setting is: (second compound 0.0316 µM, first compound 0.0316 µM) 96.5%; (second compound 0.0316 µM, first compound 0.1 µM) 89%; (second compound 0.0316 µM, first compound 0.316 µM) 94.6%; (second compound 0.0316 µM, first compound 1 µM) 77.9%; (second compound 0.0316 µM, first compound 3.16 µM) 69.3%; (second compound 0.0316 µM, first compound 10 µM) 52%. The viability, T/C reads like this: (second compound 0.1 µM, first compound 0.0316 µM) 98.6%; (second compound 0.1 µM, first compound 0.1 µM) 89.1%; (second compound 0.1 µM, first compound 0.316 µM) 97.7%; (second compound 0.1 µM, first compound 1 µM) 77.5%; (second compound 0.1 µM, first compound 3.16 µM) 64.7%; (second compound 0.1 µM, first compound 10 µM) 55.4%. Besides, the viability, T/C is 94.2% (second compound 0.316 µM, first compound 0.0316 µM); 105% (second compound 0.316 µM, first compound 0.1 µM); 95.9% (second compound 0.316 µM, first compound 0.316 µM); 89.6% (second compound 0.316 µM, first compound 1 µM); 72.2% (second compound 0.316 µM, first compound 3.16 µM); 56.5% (second compound 0.316 µM, first compound 10 µM). In addition, the viability, T/C reads like this: (second compound 1 µM, first compound 0.0316 µM) 94.7%; (second compound 1 µM, first compound 0.1 µM) 93.8%; (second compound 1 µM, first compound 0.316 µM) 95.8%; (second compound 1 µM, first compound 1 µM) 81.2%; (second compound 1 µM, first compound 3.16 µM) 69.1%; (second compound 1 µM, first compound 10 µM) 50.3%. Also, the viability, T/C (second compound 3.16 µM, first compound 0.0316 µM) is 89.1%; the viability, T/C (second compound 3.16 µM, first compound 0.1 µM) is 90.9%; the viability, T/C (second compound 3.16 µM, first compound 0.316 µM) is 83%; the viability, T/C (second compound 3.16 µM, first compound 1 µM) is 71.3%; the viability, T/C (second compound 3.16 µM, first compound 3.16 µM) is 64.5%; the viability, T/C (second compound 3.16 µM, first compound 10 µM) was 50.3%. Moreover, the viability, T/C is, setting by setting: (second compound 10 µM, first compound 0.0316 µM) 92.2%; (second compound 10 µM, first compound 0.1 µM) 87.7%; (second compound 10 µM, first compound 0.316 µM) 82%; (second compound 10 µM, first compound 1 µM) 68.8%; (second compound 10 µM, first compound 3.16 µM) 61.7%; (second compound 10 µM, first compound 10 µM) 42.4%.
For `CC[C@@]1(O)C(=O)OCc2c1cc1n(c2=O)Cc2cc3c(CN(C)C)c(O)ccc3nc2-1`, the viability, T/C (compound 0.000999 µM) is 102% and 100% and 105%; the viability, T/C (compound 0.00316 µM) is 102% and 88.7% and 106%; the viability, T/C (compound 0.00999 µM) is 87.2% and 87.7% and 96.7%; the viability, T/C (compound 0.0316 µM) is 78.6% and 59.5% and 63.7%; the viability, T/C (compound 0.0999 µM) is 57.2% and 51.5% and 58.3%; the viability, T/C (compound 0.316 µM) was 52.4% and 46.4% and 50.7%. Further, the IC50 (curve of compound) was > 0.316 µM and 0.0933 µM.
On to `C=CCn1c(=O)c2cnc(Nc3ccc(N4CCN(C)CC4)cc3)nc2n1-c1cccc(C(C)(C)O)n1`, for which the viability, T/C is, setting by setting: (compound 0.0316 µM) 99.8% and 97.8% and 103%; (compound 0.1 µM) 92% and 80.4% and 93.1%; (compound 0.316 µM) 96.9% and 51.6% and 61.3%; (compound 1 µM) 92.4% and 41% and 41.4%; (compound 3.16 µM) 67.7% and 34.9% and 37%; (compound 10 µM) 33.8% and 38.8% and 32.9%.
